Earlier results in patent publication US12180499B2, “Compositions and methods for impeding transcription of expanded microsatellite repeats” (University of Florida Research Foundation, Inc., priority 2016, dated 2024).
Starred links: 1 amine or outer side, 2 acyl side, 3 side chain; linkers in the order of their positions; H or OH if unused. Positions of bridges follow the written chain, without caps; N, C: chain ends. Non-standard residues stand in square brackets, D forms with d. Residues, ends and D or L forms follow the SMILES beside them. Chains are numbered I, II in the order given. Actinocin(9to1) = Cc1c2oc3c(C)ccc(C(=O)[*:1])c3nc-2c(C(=O)[*:2])c(N)c1=O; NMeV = CN[C@H](C(=O)O)C(C)C; Sar = CNCC(=O)O

System: expanded CTG repeats
Conditions: low nanomolar doses; cited from earlier work

Compound: Cc1c2oc3c(C)ccc(C(=O)N[C@@H]4C(=O)N[C@H](C(C)C)C(=O)N5CCC[C@H]5C(=O)N(C)CC(=O)N(C)[C@@H](C(C)C)C(=O)O[C@@H]4C)c3nc-2c(C(=O)N[C@@H]2C(=O)N[C@H](C(C)C)C(=O)N3CCC[C@H]3C(=O)N(C)CC(=O)N(C)[C@@H](C(C)C)C(=O)O[C@@H]2C)c(N)c1=O [actinomycin D] (I: T[dV]P[Sar][NMeV] / II: T[dV]P[Sar][NMeV]; ester I:1-I:C, II:1-II:C; linker I:N-II:N via Actinocin(9to1))
- transcription of expanded CTG repeats: preferentially impede transcription of expanded CTG repeats
